# Test results published in patent US12714709B2, “Pharmaceutical compositions comprising 2-[(4S)-8-fluoro-2-[4-(3-methoxyphenyl)piperazin-1-yl]-3-[2-methoxy-5-(trifluoromethyl)phenyl]-4H-quinazolin-4-yl]acetate and sodium ions” (priority 2020, dated 2026).
# Counter-ions that a name gives are not always drawn. Like-named read-outs stand apart in the source and are kept apart here.
# Key:
# [1] = pH of letermovir forms and of letermovir free base with NaOH equivalents in water; type: physicochemical; conditions: for Initial pH / pH after 1 week: no NaOH added
# Description: The pH value of the samples was measured with a calibrated pH meter EUTEGH CAKTON PH/Ion 510 Serial n° 172361 with a Polilyte lab electrode. The sample is stirred and the electrode is introduced. A measurement is performed until the pH value is stable. Between measurements the electrode is thoroughly rinsed with water. The pH measurements were performed with an analysis volume of ~1-2 mL and a defined temperature of 22° C.±3° C. A 3-point calibration of the pH meter was performed on a daily basis, by using buffers with pH 7.00, pH 4.01 and pH 10.01 (Hamilton Duracal buffer).
# (§1) A first set of letermovir samples was prepared by dissolving letermovir free base, letermovir sodium salt amorphous, letermovir sodium salt trihydrate or letermovir sodium salt monohydrate in water to prepare the solutions with the concentration of 20 mg/mL and 100 mg/mL with respect to letermovir free base in order to determine the differences in the pH immediately after dissolution and after 1 week and to check precipitation effects and solubility.
# A second set of samples was prepared by adding different equivalents of sodium hydroxide (0.84, 0.86, 0.88 and 0.9 eq.) to letermovir free base solutions. Blank solutions with the same amounts of water and sodium hydroxide equivalents and without letermovir were also prepared for comparative reasons.
# (§2) Procedure: The corresponding amount of water was added to each sample with further addition of the respective equivalents of 1 M aqueous NaOH to the samples of second set (Table 4, Table 5 and Table 6). No addition of NaOH was applied to the first set of samples.
# (§3) The suspensions were stirred at room temperature and the pH was determined immediately after the preparation and after 1 week. The solubility and precipitation effects were also checked (Table 7, Table 8 and Table 9). […]
# [2] = Solubility/precipitation in water, visual inspection; type: physicochemical; conditions: for precipitation effects / dissolution over time, visual inspection: in water without sodium hydroxide, 20 and 100 mg/mL, over 1 week
# Description: as §1, with “solubility. […]” for “solubility.”
# as §2, §3
# [3] = 20 mg/ml with respect to free base in water, Monohydrate
# [4] = 100 mg/ml with respect to free base in water, Monohydrate
# [5] = 20 mg/ml with respect to free base in water
# [6] = 100 mg/ml with respect to free base in water
# [7] = 20 mg/ml with respect to free base in water, Trihydrate
# [8] = 100 mg/ml with respect to free base in water, Trihydrate
smiles,measurement,setting,value
COc1cccc(N2CCN(C3=Nc4c(F)cccc4[C@H](CC(=O)O)N3c3cc(C(F)(F)F)ccc3OC)CC2)c1 [Sodium Salt Monohydrate],Initial pH,[1]; [3],9.2
same,pH after 1 week,[1]; [3],8.9
same,Initial pH,[1]; [4],9.2
same,pH after 1 week,[1]; [4],9.0
same,Solubility/Precipitation,"[2]; 20 mg/ml with respect to free base in water, no NaOH added, Monohydrate",Clear solution
same,Solubility/Precipitation,"[2]; 100 mg/ml with respect to free base in water, no NaOH added, Monohydrate",Clear solution
same,"precipitation effects / dissolution over time, visual inspection","[2]; listed as letermovir sodium salt monohydrate, Monohydrate",completely clear without precipitation effects
"COc1cccc(N2CCN(C3=Nc4c(F)cccc4[C@H](CC(=O)O)N3c3cc(C(F)(F)F)ccc3OC)CC2)c1 [Free Base, 2-[(4S)-8-fluoro-2-[4-(3-methoxyphenyl)-piperazin-1-yl]-3-[2-methoxy-5-(trifluoromethyl)phenyl]-4H-quinazolin-4-yl]acetic acid]",Initial pH,[1]; [5],6.1
same,pH after 1 week,[1]; [5],6.1
same,Initial pH,[1]; [6],6.3
same,pH after 1 week,[1]; [6],6.2
same,pH values of the solutions/suspension in water,"[1]; in water without sodium hydroxide, 20 and 100 mg/mL, initial and after 1 week, listed as letermovir free base",around 6
same,Solubility/Precipitation,"[2]; 20 mg/ml with respect to free base in water, no NaOH added",Insoluble
same,Solubility/Precipitation,"[2]; 100 mg/ml with respect to free base in water, no NaOH added",Insoluble
same,"precipitation effects / dissolution over time, visual inspection",[2]; listed as letermovir free base,did not dissolve
COc1cccc(N2CCN(C3=Nc4c(F)cccc4[C@H](CC(=O)O)N3c3cc(C(F)(F)F)ccc3OC)CC2)c1 [Sodium Salt Trihydrate],Initial pH,[1]; [7],9.5
same,pH after 1 week,[1]; [7],9.2
same,Initial pH,[1]; [8],9.5
same,pH after 1 week,[1]; [8],9.2
same,Solubility/Precipitation,"[2]; 20 mg/ml with respect to free base in water, no NaOH added, Trihydrate",Clear solution
same,Solubility/Precipitation,"[2]; 100 mg/ml with respect to free base in water, no NaOH added, Trihydrate",Clear solution
same,"precipitation effects / dissolution over time, visual inspection","[2]; listed as letermovir sodium dalt trihydrate, Trihydrate",completely clear without precipitation effects
COc1cccc(N2CCN(C3=Nc4c(F)cccc4[C@H](CC(=O)[O-])N3c3cc(C(F)(F)F)ccc3OC)CC2)c1.[Na+] [Sodium Salt Amorphous],Initial pH,[1]; [5],9.2
same,pH after 1 week,[1]; [5],9.0
same,Initial pH,[1]; [6],9.3
same,pH after 1 week,[1]; [6],9.1
same,Solubility/Precipitation,[2],Clear solution
same,"precipitation effects / dissolution over time, visual inspection",[2],completely clear without precipitation effects
